Key:
[1] = tested on: Human osteosarcoma (Saos-2) cells; test: MTT viability assay, Saos-2; format: cell-based; conditions: 10 nm etoposide, 72 hours
Description: Human osteosarcoma (Saos-2) cells were purchased from the American Tissue Culture Collection and maintained in McCoy's 5A medium containing 1.5 mM L-glutamine and 2200 mg/L sodium bicarbonate. Media was supplemented with 1% penicillin, streptomycin and 15% foetal bovine serum (FBS).
(§1) Stock solutions of conditioned media were prepared by dissolving glass particles (from Example 1-3) in complete McCoy's 5A medium to treat Saos-2 cells and Clonetics OGM Osteoblast complete growth media to treat osteoblasts.
(§2) Stock solutions were prepared at a concentration of 10 mg/ml and left to incubate in a shaker incubator at 250 rpm at 37° C. for 24 hours. Following the 24 hour incubation period, stock solutions were filtered using 0.2 micron syringe filter. 3 ml samples were excluded to record stock solution pH values following glass dissolution.
(§3) Cell cytotoxicity was analysed using MTT viability assay (Thermo Fisher), where 5000 cells per well of both Saos-2 and NHOst cells were cultured using conditioned media containing 10 mg/ml respective glass compositions (Examples 1-3), for a period of 72 hours. […] Metabolically active cells reduce MTT to formazan and after formazan extraction the optical density was measured using a spectrophotometer (at 570 nm). […]

[2] = tested on: Human osteoblasts (NHOst); test: MTT viability assay, NHOst; format: cell-based; conditions: 10 nm etoposide, 72 hours
Description: Human osteoblasts (NHOst) were purchased from Lonza and cultured in Clonetics OGM Osteoblast growth media supplemented with 10% FBS, 1% L-glutamine and 1% penicillin, streptomycin. Both cell lines were maintained at 37° C. in a humidified atmosphere of 5% CO2/95% air.
as §1, §2, §3

SMILES: COc1cc([C@@H]2c3cc4c(cc3[C@@H](O[C@@H]3O[C@@H]5CO[C@@H](C)O[C@H]5[C@H](O)[C@H]3O)[C@H]3COC(=O)[C@H]23)OCO4)cc(OC)c1O [etoposide, Etoposide]
- Saos-2 cell death, positive control [1]: inducer of cell death (p<0.0001)
- NHOst cell death, positive control [2]: inducer of cell death (p<0.0001)
